Experimental data taken from patent publication US10981864B2, “Crystalline modifications of N-(4,5-bismethanesulfonyl-2-methylbenzoyl)guanidine hydrochloride and N-(4,5-bismethanesulfonyl-2-methylbenzoyl)guanidine salts” (MERCK PATENT GMBH, priority 2016, dated 2021).
Where “and” joins values, the source holds several entries; their conditions need not be identical. Equal entries are not always repeated. Structures can show the parent of a compound that is named as a salt.

Legend:
Type in all cases: physicochemical
[1] = Mini-dissolution in FeSSIF medium (pH 5.0), dissolved quantity by HPLC; conditions: for Dissolution levels in FeSSIF pH 5.0: FeSSIF pH 5.0, 37° C.; for Dissolution behavior compared to prior-art form HCl-H1: biorelevant media, Fed-state conditions (FeSSIF, pH 5.0)
Experimental: Approximately 10-12 mg of N-(4,5-bis-methanesulfonyl-2-methyl-benzoyl)guanidine form HCl-H1 (HCl salt hydrate form, prior-art), HCl salt anhydrous forms (forms HCl-A1, HCl-A2, HCl-A3), and novel salt forms [phosphate salt (form Phosphate-NF1), maleate salt (form Maleate-NF2), oxalate salt (form Oxalate-NF1), citrate salt (form citrate-NF1), sulfate salt (form Sulfate-NF3), succinate salt (form Succinate-NF1), malonate salt (form Malonate-NF1), besylate salt (form Besylate-NF1), p-tosylate salt (form Tosylate-NF1), malate salt (form Malate-NF1), fumarate salt (form Fumarate-NF1), tartrate salt (form Tartrate-NF1)] are weighed into 4 mL glass vials, and dispersed in 4 mL FeSSIF medium (pH 5.0, Acetate buffer capacity increased by factor 4 to ensure stable pH conditions over course of dissolution experiments).
All dispersions are agitated at 37° C. for up to 2 hours. At defined time intervals (5 min, 15 min, 60 min, 120 min), 0.4 mL sample aliquots of homogeneous dispersions are withdrawn by a syringe, and filtrated via syringe filter adapters (PTFE, 0.2 μm). Clear filtrates are diluted (1:20) with respective Acetate blank buffer, and diluted samples analyzed by HPLC for dissolved quantities of N-(4,5-bis-methanesulfonyl-2-methyl-benzoyl)-guanidine.

[2] = Thermal behaviour (DSC/TGA), thermal stability; conditions: for Thermal stability (mp/dec): DSC/TGA 5 K/min
Experimental: As used herein, unless stated otherwise, the DSC measurements are carried out using a Mettler-Toledo DSC 821 with a heating rate of 5 K/min, using nitrogen purge gas at 50 mL/min.
As used herein, unless stated otherwise, the TGA measurements are carried out using a Mettler-Toledo TGA 851 with a heating rate of 5 K/min, using nitrogen purge gas at 50 mL/min.

[3] = Water Vapour Sorption isotherm (DVS), hygroscopicity acc. to Ph. Eur.; conditions: for Water uptake levels (Water Vapour Sorption): 25° C.; for Tendency to undergo hydrate formation: upon exposure to elevated RH levels
Experimental: As used herein, unless stated otherwise, Water Vapour Sorption isotherm measurements are carried out on a DVS-1 or a DVS-Intrinsic system from SMS.
A second endothermic event occurs at >180° C., which is due to melting of the dehydrated form. This is followed by immediate re-crystallisation (exothermic event), and subsequent melting of the re-crystallized phase at >240° C. […] DSC scan of form HCl-H1 was acquired on a Mettler-Toledo DSC 821 with a heating rate of 5 K/min, using nitrogen purge gas at 50 mL/min. […] Form HCl-H1 can be classified as non-hygroscopic acc. to Ph. Eur. criteria (section 5.11.). […] Water Vapour Sorption isotherm was acquired on a DVS-1 system from SMS. • Dissolution level of form HCl-H1 in Fed-State Simulated Intestinal Fluid [FeSSIF, pH 5.0] at 37° C. was determined to be approx. 1.50 mg/mL (after 15 min), approx. 4.16 mg/mL (after 60 min), and approx. 4.54 mg/mL (after 120 min), respectively (see example 17).

[4] = relative humidity range 0-80% rh
[5] = relative humidity range 0-90% rh
[6] = entire relative humidity range 0-98% rh

Structure (SMILES) | Dissolution levels in FeSSIF pH 5.0 ([1]; 5 min) [mg/mL] | Dissolution levels in FeSSIF pH 5.0 ([1]; 15 min) | Dissolution levels in FeSSIF pH 5.0 ([1]; 60 min) | Dissolution levels in FeSSIF pH 5.0 ([1]; 120 min) | Dissolution behavior compared to prior-art form HCl-H1 [1] | Thermal stability (mp/dec) [2] [°C] | Hygroscopicity classification acc. to Ph. Eur. criteria (section 5.11.) [3] | Water uptake levels (Water Vapour Sorption) [3, 4] [wt %] | Water uptake levels (Water Vapour Sorption) [3, 5] [wt %] | Water uptake levels (Water Vapour Sorption) ([3]; relative humidity range 10-90% rh) | Tendency to undergo hydrate formation [3] | Water uptake levels (Water Vapour Sorption) [3, 6] [wt %] | Thermally stable up to [2] [°C]
Cc1cc(S(C)(=O)=O)c(S(C)(=O)=O)cc1C(=O)NC(=N)N [Malonate-NF1, N-(4,5-bis-methanesulfonyl-2-methyl-benzoyl)-guanidine] | 3.527 | 5.340 mg/mL | 5.77±0.02 mg/mL and 5.770 mg/mL | 5.79±0.02 mg/mL and 5.790 mg/mL | improved dissolution behavior | > 190 | slightly hygroscopic | ≤ 1.0 | – | – | – | – | –
Cc1cc(S(C)(=O)=O)c(S(C)(=O)=O)cc1C(=O)NC(=N)N [HCl-A2, N-(4,5-bis-methanesulfonyl-2-methyl-benzoyl)-guanidine] | 0.990 | 1.19±0.02 mg/mL and 1.193 mg/mL | 1.90±0.02 mg/mL and 1.897 mg/mL | 2.21±0.02 mg/mL and 2.213 mg/mL | – | > 240 | non-hygroscopic | 0.1 | – | – | – | – | –
Cc1cc(S(C)(=O)=O)c(S(C)(=O)=O)cc1C(=O)NC(=N)N [Malate-NF1, N-(4,5-bis-methanesulfonyl-2-methyl-benzoyl)-guanidine] | 5.510 | 5.51±0.02 mg/mL and 5.510 mg/mL | 5.51±0.02 mg/mL and 5.510 mg/mL | 4.27±0.02 mg/mL and 4.275 mg/mL | improved dissolution behavior | – | hygroscopic | – | 7.5 | – | – | – | –
Cc1cc(S(C)(=O)=O)c(S(C)(=O)=O)cc1C(=O)NC(=N)N [Fumarate-NF1, N-(4,5-bis-methanesulfonyl-2-methyl-benzoyl)-guanidine] | 2.606 | 4.22±0.02 mg/mL and 4.222 mg/mL | 4.34±0.02 mg/mL and 4.337 mg/mL | 4.36±0.02 mg/mL and 4.361 mg/mL | improved dissolution behavior | – | slightly hygroscopic | – | – | – | – | – | –
Cc1cc(S(C)(=O)=O)c(S(C)(=O)=O)cc1C(=O)NC(=N)N [HBr-NF1, N-(4,5-bis-methanesulfonyl-2-methyl-benzoyl)-guanidine] | – | – | – | – | – | – | non-hygroscopic | – | – | 4.3-4.4 wt % | – | – | –
Cc1cc(S(C)(=O)=O)c(S(C)(=O)=O)cc1C(=O)NC(=N)N [Oxalate-NF1, N-(4,5-bis-methanesulfonyl-2-methyl-benzoyl)-guanidine] | 1.329 | 2.09±0.02 mg/mL and 2.095 mg/mL | 3.04±0.02 mg/mL and 3.042 mg/mL | 3.02±0.02 mg/mL and 3.025 mg/mL | improved dissolution behavior | > 260 | non-hygroscopic | – | – | – | no tendency to undergo hydrate formation | – | –
Cc1cc(S(C)(=O)=O)c(S(C)(=O)=O)cc1C(=O)NC(=N)N [Maleate-NF1, N-(4,5-bis-methanesulfonyl-2-methyl-benzoyl)-guanidine] | – | – | – | – | – | > 170 | – | – | – | – | – | – | –
Cc1cc(S(C)(=O)=O)c(S(C)(=O)=O)cc1C(=O)NC(=N)N.Cl.O [HCl-H1, N-(4,5-bismethanesulfonyl-2-methylbenzoyl)-guanidine hydrochloride hydrate, reference compound] | 0.494 | – | – | – | – | – | non-hygroscopic | – | – | – | – | ≤ 0.2 | –
Cc1cc(S(C)(=O)=O)c(S(C)(=O)=O)cc1C(=O)NC(=N)N [HCl-A3, N-(4,5-bis-methanesulfonyl-2-methyl-benzoyl)-guanidine] | 0.418 | 0.74±0.02 mg/mL and 0.738 mg/mL | 2.51±0.02 mg/mL and 2.506 mg/mL | 3.78±0.02 mg/mL and 3.781 mg/mL | – | > 240 | non-hygroscopic | – | – | – | – | ≤ 0.4 | –
Cc1cc(S(C)(=O)=O)c(S(C)(=O)=O)cc1C(=O)NC(=N)N [Tosylate-NF1, N-(4,5-bis-methanesulfonyl-2-methyl-benzoyl)-guanidine] | 1.961 | 4.85±0.02 mg/mL and 4.850 mg/mL | 5.28±0.02 mg/mL and 5.285 mg/mL | 2.86±0.02 mg/mL and 2.859 mg/mL | improved dissolution behavior | – | slightly hygroscopic | 1.0 | – | – | – | – | ~180
Cc1cc(S(C)(=O)=O)c(S(C)(=O)=O)cc1C(=O)NC(=N)N [Sulfate-NF3, N-(4,5-bis-methanesulfonyl-2-methyl-benzoyl)-guanidine] | 2.590 | 3.70±0.02 mg/mL and 3.703 mg/mL | 4.65±0.02 mg/mL and 4.646 mg/mL | 4.70±0.02 mg/mL and 4.705 mg/mL | improved dissolution behavior | > 210 | slightly hygroscopic | ≤ 0.5 | – | – | – | – | –
Cc1cc(S(C)(=O)=O)c(S(C)(=O)=O)cc1C(=O)NC(=N)N [Succinate-NF1, N-(4,5-bis-methanesulfonyl-2-methyl-benzoyl)-guanidine] | 1.105 | 3.26±0.02 mg/mL and 3.260 mg/mL | 5.10±0.02 mg/mL and 5.104 mg/mL | 5.03±0.02 mg/mL and 5.032 mg/mL | improved dissolution behavior | > 200 | non-hygroscopic | ≤ 0.2 | – | – | – | – | –
Cc1cc(S(C)(=O)=O)c(S(C)(=O)=O)cc1C(=O)NC(=N)N [Citrate-NF1, N-(4,5-bis-methanesulfonyl-2-methyl-benzoyl)-guanidine] | 2.056 | 4.13±0.02 mg/mL and 4.132 mg/mL | – | – | improved dissolution behavior | ~180 | slightly hygroscopic | – | ≤ 1.5 | – | no tendency to undergo hydrate formation | – | –
Cc1cc(S(C)(=O)=O)c(S(C)(=O)=O)cc1C(=O)NC(=N)N [HCl-A1, N-(4,5-bis-methanesulfonyl-2-methyl-benzoyl)-guanidine] | 0.541 | 0.87±0.02 mg/mL and 0.866 mg/mL | 2.53±0.02 mg/mL and 2.535 mg/mL | 2.76±0.02 mg/mL and 2.765 mg/mL | – | – | – | – | – | – | – | – | –
Cc1cc(S(C)(=O)=O)c(S(C)(=O)=O)cc1C(=O)NC(=N)N (racemic) [Tartrate-NF1, N-(4,5-bis-methanesulfonyl-2-methyl-benzoyl)-guanidine] | 5.165 | 5.17±0.02 mg/mL and 5.165 mg/mL | 5.17±0.02 mg/mL and 5.165 mg/mL | 5.17±0.02 mg/mL | improved dissolution behavior | – | slightly hygroscopic | – | ≤ 1.0 | – | – | – | –
